# Source: article PMC10096344 (Molecules, 2023)
# Tested on: P. aeruginosa (ATCC27853) biofilm
# Experiment: Bacterial biofilm formation (FITC staining, crystal violet staining)
# Format: cell-based, Pseudomonas aeruginosa
# Method: The bacterial biofilm growth and measurement was performed according to our previously reported method. Briefly, P. aeruginosa (ATCC27853) was cultured in the tube with nutrient broth containing 2% (w/v) glucose, shaken at 220 rpm for 12 h at 37 °C. The suspension was diluted to 1 × 10^6 CFU/mL and added to 96-well plates, the bacteria was cultured for 24 h at 37 °C for biofilm growth and the planktonic bacterial of each well was removed by PBS rinsing three times. To observe the biofilm formation, the fluorescein isothiocyanate (FITC) was added into the plates and incubated for 2 h at 37 °C; the labeled biofilm was then washed by PBS and visualized under the fluorescence microscopy (Olympus CKX53, Tokyo, Japan). The measurement of biofilm was performed according to the following procedure: the mature biofilm was fixed with 150 μL methanol and left to air dry, then stained with 150 μL of 1% (w/v) crystal violet solution for 15 min at room temperature. The plate was rinsed with PBS three times and 150 μL of glacial acetic acid was added to each well; the optical density was measured at 630 nm optical density using a microplate reader (Bio-Tek ELX800, Berten, USA).
smiles,measurement,setting,value
N#CC1=C(N)Oc2c(c(=O)oc3ccccc23)C1c1cc(C(F)(F)F)cc(C(F)(F)F)c1 (stereo not drawn) [LP4C],"biofilm formation, crystal violet staining",LP4C 5 μg/mL to 200 μg/mL,could inhibit the biofilm formation in a dose-dependent manner
same,"formation of biofilm, FITC staining",LP4C 5-200 μg/mL vs Vehicle Treatment Group,suppressed the formation of biofilm in a dose-dependent manner
same,concentration at which biofilm formation was still inhibited,inhibited even at this concentration,5 µg/mL
